The text below walks through data of patent publication US6569875B1, “Fungicide mixtures based on pyridin carboxamides and benzimidazoles or the precursors thereof” (priority 1997, dated 2003).

This assay relates to Botrytis cinerea. The assay is described as follows: Activity against Botrytis cinerea on bell pepper leaves (sprayed green bell pepper fruit disks, protective). The class given is in vivo. The conditions noted are these: single active ingredient, 4 ppm in the spray liquor, inoculated 2 hours after spray coating dried, 18° C., 4 days, visual evaluation. As for the experimental part: The active ingredients, separately or together, are formulated as a 10% emulsion in a mixture of 63% by weight of cyclohexanone and 27% by eight of emulsifier, and diluted with water to the desired concentration.
Evaluation is carried out by determining the infected leaf areas in percent. These percentages are converted into efficacies. The efficacy (W) is calculated as follows using Abbot's formula: […]
α corresponds to the fungal infection of the treated plants in % and β corresponds to the fungal infection of the untreated (control) plants in % An efficacy of 0 means that the infection level of the treated plants corresponds to that of the untreated control plants; an efficacy of 100 means that the treated plants were not infected.
The expected efficacies of the mixtures of the active ingredients were determined using Colby's formula [R. S. Colby, Weeds 15, 20-22 (1967)] and compared with the observed efficacies.
Colby formula: E=x+Y−x·y/100
E expected efficacy, expressed in % of the untreated control, when using the mixture of the active ingredients A and B at the concentrations a and b x efficacy, expressed in % of the untreated control, when using active ingredient A at the concentration a y efficacy, expressed in % of the untreated control, when using active ingredient B at the concentration b Disks of green bell peppers were sprayed to runoff point with an aqueous preparation of active ingredient which had been prepared from a stock solution comprising 10% of active ingredient, 63% of cyclohexanone and 27% of emulsifier. 2 hours after the spray coating had dried on, the fruit disks were inoculated with a spore suspension of Botrytis cinerea containing 1.7×10^6 spores per ml of a 2% strength Biomalz solution. The inoculated fruit disks were subsequently incubated in humid chambers at 18° C. for 4 days. The Botyrtis infection on the diseased fruit disks was then evaluated visually.
With `COC(=O)NC(=S)Nc1ccccc1NC(=S)NC(=O)OC` [Compound II.f, dimethyl 4,4′-(o-phenylene)-bis(3-thioallophanate)], the “Efficacy in % of the untreated control” value is 10%.

With `CCCCNC(=O)n1c(NC(=O)OC)nc2ccccc21` [Compound II.a, methyl 1-(butylcarbamoyl)benzimidazol-2-ylcarbamate], the “Efficacy in % of the untreated control” value was determined as 10%.

As to `O=C(Nc1ccccc1-c1ccc(Cl)cc1)c1cccnc1Cl` [Compound I.2], the “Efficacy in % of the untreated control” value is listed as 40%.

Consider `O=C(Nc1ccccc1-c1ccc(F)cc1)c1cccnc1Cl` [Compound I.1], for which the “Efficacy in % of the untreated control” value is 0%.
